Results from patent US5373089A, “Oxytocin antagonist” (Northwestern University, priority 1993, dated 1994).
Starred links: 1 amine or outer side, 2 acyl side, 3 side chain; linkers in the order of their positions; H or OH if unused. Positions of bridges follow the written chain, without caps; N, C: chain ends. Non-standard residues stand in square brackets, D forms with d. Residues, ends and D or L forms follow the SMILES beside them. X1 = O=C(CC1(S[*:2])CCCCC1)[*:1]; Pen = CC(C)(S)[C@H](N)C(=O)O; Orn = NCCC[C@H](N)C(=O)O; Mpa = O=C(O)CCS

Columns and labels:
oxytocin = conditions: reported in the cited literature; cited from earlier work
ADH = ADH bioassay (alteration in urine output due to ADH); format: in vivo; conditions: in vivo
Protocol: The above compound was also tested for antagonism to vasopressin. Anti-ADH activity can be determined by measuring the alteration in urine output due to ADH in the presence and absence of the antagonist. A suitable ADH-assay is described in Sawyer, et al., Endocrinology, 63:694 (1958). […] The ratio of oxytocin antagonism to ADH antagonism was very high, viz. over 1, 866, as compared with 200 for the compositions disclosed in the parent applications.
The anti-ADH activity is measured by the alteration in urine […] in the presence and absence of the antagonist to determine the specificity of the antagonist. The anti-ADH assay is described in Sawyer, et al., Endocrinology, 63:694 (1958).

ESTROUS RAT UTERUS = experiment: Oxytocic bioassay (isolated rat uterus, integrated contraction response to oxytocin); format: cell-based
Description: The protocol used for the oxytocin bioassay procedure is derived from procedures described in a paper by Sawyer, et al., Endocrinology, 106:81 (1980), which in turn was based on reports of Munsick, Brit. J. Pharmacol., 3:328 (1960), and Holton, Brit. J. Pharmacol., 3:328 (1948). The assay calculations for the pA2 estimates are described by Schild, British J. Pharmacology, 2:189 (1947). The major difference in the present procedure from those reported by others in the field is that the area under the contraction is integrated where most other techniques calculate the amplitude. Integration provides much more consistent and reliable results although the pA2 estimates are approximately an order of magnitude lower than those reported using amplitude of the contraction as the endpoint.
1. Animals--a 1.5 cm piece of uterus from a virgin rat (Holtzman) in natural estrus is used for the assay.
2. Buffer/Assay Bath--The buffer used is Munsicks. […] The buffer is gassed continuously with 95% oxygen; 5% carbon dioxide giving a pH of 7.4. The temperature of the assay bath is 37° C. A 10 ml assay bath is used that contains a water jacket for maintaining the temperature and inlet and outlet spikets for adding and removing buffer.
3. Polygraph/transducer--The piece of uterine tissue used for the assay is anchored at one end and connected to a Statham Strain Gauge Force Transducer at the other end which in turn is attached to a Grass Polygraph Model 79 for monitoring the contractions.
4. Assay Protocol. (a) The tissue is equilibrated in the assay bath for one hour with washing with new buffer every fifteen minutes. One gram of tension is kept on the tissue at all times.
(b) The tissue is stimulated initially with oxytocin at 10 nM to "acclimate" the tissue and with […] KCl to determine the maximum contractile response.
(d) The tissue is exposed to oxytocin (Calbiochemical, San Diego, Calif.) for one minute and washed out. There is a three minute interval before addition of the next dose of the agonist or antagonist. When the antagonist is tested, it is given five minutes before the agonist. The agonist is given for one minute. All responses are integrated using a 7P10 Grass Integrator. This is the major difference between the present protocol and others in the literature which usually measure amplitude of the contractions as the response. A single concentration of oxytocin, equal to 80% of the maximum response, is used to test the antagonist. […] This is repeated three times for each dose of antagonist for a three point assay.
(e) Calculations for pA2 : The dose-response (DR) ratios are calculated for antagonist and a Schild's Plot is performed by plotting the Log (DR-1) vs. Log of antagonist concentration. The line plotted is calculated by least squares regression analysis. The pA2 is the concentration of antagonist at the point where the regression line crosses the 0 point of the Log (DR-1) ordinate. The pA2 is the negative Log of the concentration of antagonist that will reduce the response to the agonist by one-half.
The protocol used for the oxytocin bioassay procedure is derived from procedures described in a paper by Sawyer, et al., Endocrinology, 106:81 (1980), which in turn was based on reports of Munsick, Brit. J. Pharmacol., 3:328 (1960), and Holton, Brit. J. Pharmacol., 3:328 (1948). The assay calculations for the pA2 estimates are described by Schild, Brit. J. Pharmacol. (1947). The major difference in procedure from those previously reported was the integration of the area under the contraction instead of merely calculating the amplitude. Integration provides more consistent and reliable results, although the pA2 estimates are about an order of magnitude lower than those reported using amplitude of the contraction as the endpoint.
A 1.5 cm piece of uterus from a virgin rat (Holtzman) in natural estrus is used for the assay.
The buffer used is Munsick's. […]

RAT OXYTOCIN RECEPTOR = biological target: T1, RAT OXYTOCIN RECEPTOR (Rattus norvegicus, UniProt P70536); experiment: Oxytocin receptor assay, pregnant rat uterus (P21) membranes, 3H-OT competition; format: binding
T1 construct: from tissue; host or cells: uterus of day-21 pregnant Holtzman rats, sucrose-gradient membrane fraction
T1 sequence (P70536 1-388): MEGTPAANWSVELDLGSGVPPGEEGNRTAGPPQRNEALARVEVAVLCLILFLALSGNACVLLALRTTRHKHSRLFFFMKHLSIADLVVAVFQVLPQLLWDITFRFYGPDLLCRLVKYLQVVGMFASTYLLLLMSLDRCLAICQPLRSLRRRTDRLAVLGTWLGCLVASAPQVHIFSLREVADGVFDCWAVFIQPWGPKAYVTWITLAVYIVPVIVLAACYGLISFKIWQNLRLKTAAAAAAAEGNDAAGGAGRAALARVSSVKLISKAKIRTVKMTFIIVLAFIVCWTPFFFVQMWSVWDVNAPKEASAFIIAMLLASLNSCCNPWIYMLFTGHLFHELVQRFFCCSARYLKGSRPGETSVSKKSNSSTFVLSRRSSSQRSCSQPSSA
Protocol: Uterine tissue was removed on day 21 of pregnancy (delivery=Days 211/2 to 221/2) from Holtzman rats. The tissue was emptied of its contents, rinsed in ice cold buffer, cut into small pieces and frozen at -70° C. until homogenization.
(§1) Oxytocin receptors (OTrs) reside on the cell membrane and are present at high concentrations at the end of pregnancy in uterine tissue. Frozen tissue is homogenized in Tris buffer, the homogenate filtered, and the filtrate centrifuged at 1000 g for 15 minutes at 4° C. The supernatant is centrifuged at 40,000 g for 30 minutes and the pellet containing the cell membranes resuspended in 10% sucrose. Density gradient ultracentrifugation is then performed by placing the 10 % sucrose suspension on top of 35% sucrose and centrifuging for 30 minutes in a swing bucket rotor at 105,000 g. The membranes at the interface of the 10%/35% sucrose are removed and resuspended in Tris buffer containing EDTA for 30 minutes. This procedure removes divalent cation and results in dissociation of any endogenously bound OT to the receptor. This mixture is then centrifuged for 15 minutes at 100,000 g and the pellet containing the membrane OTrs resuspended in Tris, PMSF, Mg^++, buffer by sonication.
(§2) The binding assay consist of 0.1 ml of 20,000 cmp of tritium labeled OT (New England Nuclear, […]), 0.1 ml of OT antagonist added at increasing concentration, 0.25 ml of buffer and 0.05 ml of membrane (70-150 ug protein). A nonspecific tube has 100× of cold OTA added to it. The incubation is for 30 minutes at 30 ° C. The membrane is pelleted by centrifugation in ultraclear mini tubes (5×41 mm) for 30 minutes at 105,000 g. The resulting pellet containing the bound ^3 H-OT is dissolved in 0.1N NaOH at 45 ° C. for 30 minutes and this mixture is then placed in liquid scintillation counting fluid and counted for dpms in a scintillation counter.
(§3) The data is analyzed by nonlinear curve fitting methods using McPherson's EBDA (J Pharmacol Methods 14:213-228, 1985) and Munson and Rodbard's LIGAND (Anal Biochem 107:220-239, 1980) program for saturation and competition analysis for determining Kds and Kis.

HUMAN OXYTOCIN RECEPTOR = biological target: T2, HUMAN OXYTOCIN RECEPTOR (Homo sapiens, UniProt P30559); experiment: Oxytocin receptor assay, human myometrial tissue membranes, 3H-OT competition; format: binding
T2 construct: Oxytocin receptors (OTrs) reside on the cell membrane and are present at high concentrations at the end of pregnancy in uterine tissue; from tissue; host or cells: human myometrium from cesarean section patients, sucrose-gradient membrane fraction
T2 sequence (P30559 1-389): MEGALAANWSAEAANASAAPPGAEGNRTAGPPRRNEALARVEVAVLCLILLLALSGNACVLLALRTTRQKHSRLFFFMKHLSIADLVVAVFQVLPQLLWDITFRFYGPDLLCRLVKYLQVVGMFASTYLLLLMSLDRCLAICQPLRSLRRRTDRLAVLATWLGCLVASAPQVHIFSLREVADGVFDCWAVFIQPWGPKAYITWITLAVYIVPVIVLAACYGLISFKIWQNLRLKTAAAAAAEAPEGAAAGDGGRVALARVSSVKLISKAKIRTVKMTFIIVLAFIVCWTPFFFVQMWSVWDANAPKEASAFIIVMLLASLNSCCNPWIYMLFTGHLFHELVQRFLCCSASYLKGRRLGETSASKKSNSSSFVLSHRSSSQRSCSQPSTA
Protocol: Human myometrial tissue was collected from patients at the time of cesarian section after informed consent. The tissue was rinsed in cold buffer, cut into small pieces and frozen at -70° C. until homogenization.
as §1, §2, §3

With 1-deamino, ethyloxytocin as the compound, how does the “pA2 (anti-oxytocic, literature)” value (oxytocin) read?
Its value is 7.2.

Which “pA2 (anti-oxytocic, literature)” value (oxytocin) does the source give for “1deamino[D-Tyr(OEt)^2, Thr^4, Orn^8 ] vasopressin” here?
The value was 8.3.

With `CC[C@H](C)[C@@H]1NC(=O)[C@H](Cc2ccccc2)NC(=O)[C@@H](Cc2ccccc2)NC(=O)CC2(CCCCC2)SSC[C@@H](C(=O)N2CCC[C@H]2C(=O)N[C@@H](CCCNC(=N)N)C(=O)NCC(N)=O)NC(=O)[C@H](CC(N)=O)NC1=O` [Compound A, [Pmp^1,D-Phe^2,Phe^3,Ile^4,Arg^8] oxytocin, reference compound] ([dF]FINCPRG-NH2; linker N-5 via X1) as the compound, how does the “ADH Bioassay pA2” value (ADH) read?
The value was 7.66.

And the “Oxytocic Bioassay pA2” value (ESTROUS RAT UTERUS; virgin rat uterus in natural estrus, Munsick's buffer 0.5 mM Mg++, integrated contraction area)?
The value was 7.35.

With `CC[C@H](C)[C@@H]1NC(=O)[C@@H](Cc2c[nH]c3ccccc23)NC(=O)CC2(CCCCC2)SSC(C)(C)[C@@H](C(=O)N2CCC[C@H]2C(=O)N[C@@H](CCCNC(=N)N)C(=O)NCC(N)=O)NC(=O)[C@H](CC(N)=O)NC(=O)[C@H](CCC(N)=O)NC1=O` [Compound C2, [Pmp^1, DTrp^2, Pen^6, Arg^8] oxytocin] ([dW]IQN[Pen]PRG-NH2; linker N-5 via X1) as the compound, how does the Kd (RAT OXYTOCIN RECEPTOR) read?
Its Kd is 0.87 nM.

Which Kd (HUMAN OXYTOCIN RECEPTOR) does the source give for `CC[C@H](C)[C@@H]1NC(=O)[C@@H](Cc2c[nH]c3ccccc23)NC(=O)CC2(CCCCC2)SSC[C@@H](C(=O)N2CCC[C@H]2C(=O)N[C@@H](CCCNC(=N)N)C(=O)NCC(N)=O)NC(=O)[C@H](CC(N)=O)NC(=O)[C@H](CCC(N)=O)NC1=O` [Compound C, [Pmp^1, D-Trp^2, Arg^8] oxytocin] ([dW]IQNCPRG-NH2; linker N-5 via X1) here?
The Kd was 5.49 nM.

What about the “ADH Bioassay pA2” value (ADH) of the same compound?
Its value is 5.51.

What about the Kd (RAT OXYTOCIN RECEPTOR) of the same compound?
The Kd was 4.93 nM.

Which Kd (HUMAN OXYTOCIN RECEPTOR) does the source give for `CCOc1ccc(C[C@H]2NC(=O)CCSSC[C@@H](C(=O)N3CCC[C@H]3C(=O)N[C@@H](CCCN)C(=O)NCC(N)=O)NC(=O)[C@H](CC(N)=O)NC(=O)[C@H]([C@@H](C)O)NC(=O)[C@H]([C@@H](C)CC)NC2=O)cc1` [E, [Mpa^1,DTyr(Et)^2,Thr^4, Orn^8] oxytocin, reference compound] ([Mpa][dY](Et)ITNCP[Orn]G-NH2; disulfide 1-6) here?
Its Kd is 18.9 nM.

What about the “hOTR (OTA/ANTI)” value (HUMAN OXYTOCIN RECEPTOR; ratio of binding affinity to ANTAG I, human oxytocin receptor) of the same compound?
Its value is 1.0.

And the Kd (RAT OXYTOCIN RECEPTOR)?
Its Kd is 19.6 nM.

What about the “rOTr (OTA/ANTI)” value (RAT OXYTOCIN RECEPTOR; ratio of binding affinity to ANTAG I, rat oxytocin receptor) of the same compound?
The value was 0.4.

What about the “OXYTOCIC BIOASSAY ED50” value (ESTROUS RAT UTERUS; estrous rat uterus, Table 3) of the same compound?
Its value is 102.33 nM.

What about the “BIOASSAY ED50” value (ESTROUS RAT UTERUS; estrous rat uterus, Table 4) of the same compound?
Its value is 102.3 nM.

What about the “BIOASSAY (ANTI/OTA)” value (ESTROUS RAT UTERUS; ratio to ANTAG I, rat oxytocic bioassay) of the same compound?
The value was 0.3.

For “(1-deaminopenicillamine, 2-0-methyltyrosine) oxytocin”, which “pA2 (anti-oxytocic, literature)” value (oxytocin) is on record?
Its value is 7.8.
